From the supplement of paper PMC10307832

Tests used:
Test in all cases: relative viability (nuclei count vs DMSO), 5 days (fraction); higher = more cells survive
[1] = compound: CCn1c(-c2nonc2N)nc2cnc(Oc3cccc(NC(=O)c4ccc(OCCN5CCOCC5)cc4)c3)cc21 + C[C@]1(O)C[C@@H](c2nc(-c3ccc4ccc(-c5ccccc5)nc4c3)c3c(N)nccn32)C1 [Linsitinib] (partner 1 µM)
How it was run: (§1)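 Relative viability is defined as nuclei in treated wells over nuclei in vehicle wells. Duplicate plates were run and medians reported. Lung cancer cell lines in 1536-well plates were dosed by pin tool one day after seeding, with one drug or with a fixed anchor-drug dose plus five library-drug doses (not always all listed) in √10 steps, and nuclei were counted after 5 days.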

[2] = compound: CCn1c(-c2nonc2N)nc2cnc(Oc3cccc(NC(=O)c4ccc(OCCN5CCOCC5)cc4)c3)cc21 + CS(=O)(=O)N1CCN(Cc2cc3nc(-c4cccc5[nH]ncc45)nc(N4CCOCC4)c3s2)CC1 [Pictilisib] (partner 1 µM)
How it was run: as §1

[3] = compound: N=C1NC(=O)/C(=C/c2ccc(O)cc2)S1 [Mirin] + Nc1nc2[nH]cc(CCc3ccc(C(=O)N[C@@H](CCC(=O)O)C(=O)O)cc3)c2c(=O)[nH]1 [Pemetrexed] (partner 0.2 µM)
How it was run: as §1

[4] = compound: N=C1NC(=O)/C(=C/c2ccc(O)cc2)S1 [Mirin] + CC(=O)c1c(C)c2cnc(Nc3ccc(N4CCNCC4)cn3)nc2n(C2CCCC2)c1=O [Palbociclib] (partner 0.5 µM)
How it was run: as §1

| Cell Line | relative viability ([1]; first compound 0.04 µM) | relative viability ([1]; first compound 0.1265 µM) | relative viability ([1]; first compound 0.4 µM) | relative viability ([1]; first compound 1.265 µM) | relative viability ([1]; first compound 4 µM) | relative viability ([2]; first compound 0.04 µM) | relative viability ([2]; first compound 0.1265 µM) | relative viability ([2]; first compound 0.4 µM) | relative viability ([2]; first compound 1.265 µM) | relative viability ([2]; first compound 4 µM) | relative viability ([3]; first compound 0.25 µM) | relative viability ([3]; first compound 0.7906 µM) | relative viability ([3]; first compound 2.5 µM) | relative viability ([3]; first compound 7.906 µM) | relative viability ([3]; first compound 25 µM) | relative viability ([4]; first compound 0.25 µM) | relative viability ([4]; first compound 0.7906 µM) | relative viability ([4]; first compound 2.5 µM) | relative viability ([4]; first compound 7.906 µM) | relative viability ([4]; first compound 25 µM) |
| --- | --- | --- | --- | --- | --- | --- | --- | --- | --- | --- | --- | --- | --- | --- | --- | --- | --- | --- | --- | --- |
| NCI-H650 | 1.01 | 0.667 | 0.521 | 0.304 | 0.426 | 1.09 | 0.809 | 0.594 | 0.484 | 0.542 | 1.05 | 0.865 | 0.928 | 0.711 | 0.94 | 0.306 | 0.399 | 0.333 | 0.265 | 0.38 |
| NCI-H1975 | 0.833 | 0.65 | 0.895 | 0.385 | 0.293 | 0.253 | 0.192 | 0.157 | 0.143 | 0.148 | 0.324 | 0.256 | 0.272 | 0.274 | 0.252 | 0.7 | 0.57 | 0.555 | 0.606 | 0.583 |
| NCI-H358 | 1.12 | 0.615 | 0.574 | 0.571 | 0.434 | 0.339 | 0.401 | 0.316 | 0.384 | 0.216 | 0.162 | 0.176 | 0.182 | 0.161 | 0.143 | 0.127 | 0.145 | 0.148 | 0.139 | 0.199 |
| RERF-LC-KJ | 1.06 | 0.976 | 0.877 | 0.721 | 0.637 | 0.541 | 0.452 | 0.516 | 0.476 | 0.377 | 0.429 | 0.514 | 0.485 | 0.49 | 0.42 | 1.14 | 1.09 | 1.2 | 1.2 | 1.1 |
| NCI-H1792 | 0.65 | 0.572 | – | 0.423 | 0.512 | 0.267 | 0.28 | – | 0.231 | 0.285 | 0.772 | 0.653 | 1.15 | 0.708 | 0.844 | 0.561 | 0.714 | 0.664 | – | 0.608 |
| NCI-H647 | 0.993 | 1 | 1.01 | 0.729 | 0.558 | 0.614 | 0.307 | 0.249 | 0.207 | 0.276 | 0.198 | 0.161 | 0.146 | 0.172 | 0.111 | 0.395 | 0.4 | 0.381 | 0.374 | 0.345 |
| SK-LU-1 | 1.17 | 0.861 | 0.906 | 0.439 | 0.423 | 0.686 | 0.448 | 0.432 | 0.336 | 0.416 | 0.983 | 0.992 | 0.931 | 0.855 | 0.823 | 0.433 | 0.393 | 0.417 | 0.348 | 0.405 |
| NCI-H441 | 0.545 | 0.766 | 0.635 | 0.566 | 0.465 | 0.582 | 0.541 | 0.438 | 0.386 | 0.376 | 0.227 | 0.262 | 0.251 | 0.261 | 0.251 | 0.259 | 0.232 | 0.241 | 0.242 | 0.175 |
